Results from patent US5919653A, “Nucleic acids encoding a human glycine transporter” (Allelix Neuroscience Inc., priority 1996, dated 1999).

Molecular target: human GlyT-2 glycine transporter (clone pHGT2, SEQ ID 20 nucleic acid / SEQ ID 21 protein) (Homo sapiens, UniProt Q9Y345, I279N/I611V)
Assay: cell-based
Method: Transient GlyT-transfected cells or control cells grown in accordance with Example 5 were washed three times with HEPES buffered saline (HBS). The control cells were treated precisely as the GlyT-transfected cells except that the transfection procedure omitted any cDNA. […] The cells were then incubated another 20 minutes at 37° C., after which the cells were washed three times with ice-cold HBS. Scintillant was added to the cells, the cells were shaken for 30 minutes, and the radioactivity in the cells was counted using a scintillation counter. Data were compared between the cells contacted or not contacted by a prospective agent, and, where relevant, between cells having GlyT-1 activity versus cells having GlyT-2 activity, depending on the assay being conducted.
Data points represent means±SEM from an experiment performed in quadruplicate.

human GlyT-2 glycine transporter (clone pHGT2, SEQ ID 20 nucleic acid / SEQ ID 21 protein), sequence (Q9Y345 whole entry I279N/I611V): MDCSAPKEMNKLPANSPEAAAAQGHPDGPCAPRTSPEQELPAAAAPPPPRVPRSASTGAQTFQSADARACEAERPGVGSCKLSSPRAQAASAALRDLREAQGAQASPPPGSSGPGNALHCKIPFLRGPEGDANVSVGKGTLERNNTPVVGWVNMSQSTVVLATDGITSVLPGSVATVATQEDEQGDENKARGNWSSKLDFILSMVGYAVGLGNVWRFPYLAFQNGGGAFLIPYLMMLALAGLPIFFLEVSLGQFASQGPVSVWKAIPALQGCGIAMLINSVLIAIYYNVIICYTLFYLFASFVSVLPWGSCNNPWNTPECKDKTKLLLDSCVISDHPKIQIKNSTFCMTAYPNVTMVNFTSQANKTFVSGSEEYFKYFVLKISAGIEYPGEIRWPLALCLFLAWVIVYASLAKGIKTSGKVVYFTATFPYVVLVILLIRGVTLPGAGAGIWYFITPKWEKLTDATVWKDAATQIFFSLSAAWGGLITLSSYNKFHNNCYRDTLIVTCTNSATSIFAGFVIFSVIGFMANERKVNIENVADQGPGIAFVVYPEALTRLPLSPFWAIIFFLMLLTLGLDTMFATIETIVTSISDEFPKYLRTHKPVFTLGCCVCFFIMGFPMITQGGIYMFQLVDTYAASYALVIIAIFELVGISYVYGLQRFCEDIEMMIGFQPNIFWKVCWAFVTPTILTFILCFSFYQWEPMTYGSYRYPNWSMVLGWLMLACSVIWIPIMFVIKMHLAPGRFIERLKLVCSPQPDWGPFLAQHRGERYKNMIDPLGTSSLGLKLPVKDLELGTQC

IC50: 40 µM
Compound: NCC(=O)O [glycine]
